Data on 3 compounds can be found in BindingDB's records for doi:10.1021/jm5004733 (University of Texas Medical Branch, 2014).

Molecules are shown by their SMILES. Where only a bound is given, the exact number is not on record here.

In the test the target is Transcription factor Jun (Homo sapiens, UniProt P05412). The test can be described thus: Inhibition of AP-1-mediated transcriptional activation in human Jurkat cells by luciferase reporter gene assay. A general note: Reporter assays use an easily measured gene product as a stand-in for the process of interest.
Chain of Transcription factor Jun (P05412 whole entry): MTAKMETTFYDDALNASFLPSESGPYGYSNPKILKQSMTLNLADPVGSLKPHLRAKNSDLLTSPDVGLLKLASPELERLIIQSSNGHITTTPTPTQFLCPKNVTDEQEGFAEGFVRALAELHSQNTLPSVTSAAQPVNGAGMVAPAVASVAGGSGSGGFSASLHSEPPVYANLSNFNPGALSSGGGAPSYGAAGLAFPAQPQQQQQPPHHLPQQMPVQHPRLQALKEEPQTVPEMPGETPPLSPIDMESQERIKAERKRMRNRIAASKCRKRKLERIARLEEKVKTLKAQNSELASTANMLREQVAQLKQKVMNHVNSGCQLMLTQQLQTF
On to `N#Cc1ncc(C(=O)Nc2cc(C(F)(F)F)cc(C(F)(F)F)c2)c(C(F)(F)F)n1` [2-Cyano-4-trifluoromethyl-pyrimidine-5-carboxylic acid (3,5-bis-trifluoromethyl-phenyl)-amide], for which the half-maximal inhibitory concentration (IC50) (commonly the concentration at which inhibition is half-maximal) was > 10 µM.

In the case of `O=C(Nc1cc(C(F)(F)F)cc(C(F)(F)F)c1)c1cnc(C(F)(F)F)nc1C(F)(F)F` [2,4-Bis-trifluoromethyl-pyrimidine-5-carboxylic acid (3,5-bis-trifluoromethyl-phenyl)-amide], the IC50 is > 10 µM.

As for `O=C(Nc1cc(C(F)(F)F)cc(C(F)(F)F)c1)c1ccc(Cl)cc1C(F)(F)F` [N-(3,5-Bis-trifluoromethyl-phenyl)-4-chloro-2-trifluoromethyl-benzamide], the IC50 is > 30 µM.
